From paper PMC5218480 (PLoS ONE, 2017) come the findings set out here.

This assay concerns MV-4-11 cells. Kind of assay: Gene expression microarray analysis (Affymetrix PrimeView) and GSEA. It counts as cell-based, human. Set-up: RFU PODN (11730768_x_at) / Fold change /veh PODN (11730768_x_at) / RFU LINC00158 (11744669_a_at) / Fold change /veh LINC00158 (11744669_a_at) / RFU DUSP10 (11751237_a_at) / Fold change /veh DUSP10 (11751237_a_at) / RFU ID3 (11757404_x_at) / Fold change /veh ID3 (11757404_x_at) / RFU PLEKHG5 (11737974_s_at) / Fold change /veh PLEKHG5 (11737974_s_at) / RFU LRRC4B (11730491_at) / Fold change /veh LRRC4B (11730491_at) / RFU GIMAP4 (11747438_a_at) / Fold change /veh GIMAP4 (11747438_a_at) / RFU KRT8 (11758183_x_at) / Fold change /veh KRT8 (11758183_x_at) / RFU CNN1 (11734310_a_at) / Fold change /veh CNN1 (11734310_a_at) / RFU VPS37D (11726825_at) / Fold change /veh VPS37D (11726825_at) / RFU C10orf10 (11716522_x_at) / Fold change /veh C10orf10 (11716522_x_at) / RFU KIR2DL2 /// KIR2DL4 /// KIR2DL5A /// KIR2DL5B /// KIR2DS1 /// KIR2DS2 /// KIR2DS3 /// KIR2DS4 /// KIR3DL3 /// KIR3DL3 /// KIR3DS1 (11738374_at) / Fold change /veh KIR2DL2 /// KIR2DL4 /// KIR2DL5A /// KIR2DL5B /// KIR2DS1 /// KIR2DS2 /// KIR2DS3 /// KIR2DS4 /// KIR3DL3 /// KIR3DL3 /// KIR3DS1 (11738374_at) / RFU C1QL1 (11718748_at) / Fold change /veh C1QL1 (11718748_at) / RFU TMPRSS4 (11747572_a_at) / Fold change /veh TMPRSS4 (11747572_a_at) / RFU HAMP (11756126_x_at) / Fold change /veh HAMP (11756126_x_at) / RFU RNFT2 (11725882_a_at) / Fold change /veh RNFT2 (11725882_a_at) / RFU NR4A2 (11747474_a_at) / Fold change /veh NR4A2 (11747474_a_at) / RFU ABCC12 (11746883_a_at) / Fold change /veh ABCC12 (11746883_a_at) / RFU TMEM136 (11760407_x_at) / Fold change /veh TMEM136 (11760407_x_at) / RFU CLDN22 /// WWC2 (11732394_at) / Fold change /veh CLDN22 /// WWC2 (11732394_at) / RFU HLA-DPB1 (11760878_x_at) / Fold change /veh HLA-DPB1 (11760878_x_at) / RFU SPINT1 (11716480_a_at) / Fold change /veh SPINT1 (11716480_a_at) / RFU GAP43 (11754022_s_at) / Fold change /veh GAP43 (11754022_s_at) / RFU A4GNT (11735810_at) / Fold change /veh A4GNT (11735810_at) / RFU PRB3 (11715151_x_at) / Fold change /veh PRB3 (11715151_x_at) / RFU TUBB4B (11761932_at) / Fold change /veh TUBB4B (11761932_at) / RFU CAPN14 (11732068_a_at) / Fold change /veh CAPN14 (11732068_a_at) / RFU TMCC2 (11721928_a_at) / Fold change /veh TMCC2 (11721928_a_at) / RFU IRGQ (11745062_a_at) / Fold change /veh IRGQ (11745062_a_at) / RFU FAM174B (11720279_a_at) / Fold change /veh FAM174B (11720279_a_at) / RFU TMPRSS4 (11748680_a_at) / Fold change /veh TMPRSS4 (11748680_a_at) / RFU FAM212B (11763350_a_at) / Fold change /veh FAM212B (11763350_a_at) / RFU PLEKHG5 (11743358_a_at) / Fold change /veh PLEKHG5 (11743358_a_at) / RFU ZSCAN30 (11745921_a_at) / Fold change /veh ZSCAN30 (11745921_a_at) / RFU CMKLR1 (11741424_a_at) / Fold change /veh CMKLR1 (11741424_a_at) / RFU LOC101060620 /// MAPK8IP1 (11723275_at) / Fold change /veh LOC101060620 /// MAPK8IP1 (11723275_at) / RFU SPTSSB (11747773_x_at) / Fold change /veh SPTSSB (11747773_x_at) / RFU PRSS12 (11739890_at) / Fold change /veh PRSS12 (11739890_at) / RFU BIN1 (11741810_x_at) / Fold change /veh BIN1 (11741810_x_at) / RFU WNT11 (11732464_a_at) / Fold change /veh WNT11 (11732464_a_at) / RFU C10orf10 (11716521_a_at) / Fold change /veh C10orf10 (11716521_a_at) / RFU C5orf56 (11738089_at) / Fold change /veh C5orf56 (11738089_at) / RFU CYB561 (11721691_x_at) / Fold change /veh CYB561 (11721691_x_at) / RFU ANKRD19P (11752326_a_at) / Fold change /veh ANKRD19P (11752326_a_at) / RFU OR2T12 /// OR2T33 /// OR2T8 (11738714_s_at) / Fold change /veh OR2T12 /// OR2T33 /// OR2T8 (11738714_s_at) / RFU VCAN (11748164_a_at) / Fold change /veh VCAN (11748164_a_at) / RFU JSRP1 (11732532_at) / Fold change /veh JSRP1 (11732532_at) / RFU KRTAP10-11 (11738290_x_at) / Fold change /veh KRTAP10-11 (11738290_x_at) / RFU MYO3A (11730013_a_at) / Fold change /veh MYO3A (11730013_a_at) / RFU EBF3 (11725865_a_at) / Fold change /veh EBF3 (11725865_a_at) / RFU CAMK2N1 (11719241_x_at) / Fold change /veh CAMK2N1 (11719241_x_at) / RFU C5orf56 (11738088_a_at) / Fold change /veh C5orf56 (11738088_a_at) / RFU OLFML3 (11715873_a_at) / Fold change /veh OLFML3 (11715873_a_at) / RFU LOC100653217 /// NTM (11731650_a_at) / Fold change /veh LOC100653217 /// NTM (11731650_a_at) / RFU MAPK11 (11762145_a_at) / Fold change /veh MAPK11 (11762145_a_at) / RFU FIZ1 (11724087_x_at) / Fold change /veh FIZ1 (11724087_x_at) / RFU OASL (11726364_x_at) / Fold change /veh OASL (11726364_x_at) / RFU SOX15 (11748057_x_at) / Fold change /veh SOX15 (11748057_x_at) / RFU CD79A (11719716_a_at) / Fold change /veh CD79A (11719716_a_at) / RFU HIST1H1D (11736915_at) / Fold change /veh HIST1H1D (11736915_at) / RFU CASKIN2 (11723855_a_at) / Fold change /veh CASKIN2 (11723855_a_at) / RFU LOC730098 (11760151_x_at) / Fold change /veh LOC730098 (11760151_x_at) / RFU OR4N2 (11742367_at) / Fold change /veh OR4N2 (11742367_at) / RFU PRRT2 (11749266_a_at) / Fold change /veh PRRT2 (11749266_a_at) / RFU SNX32 (11753110_a_at) / Fold change /veh SNX32 (11753110_a_at) / RFU CDHR5 (11726645_a_at) / Fold change /veh CDHR5 (11726645_a_at) / RFU RCAN1 (11760418_a_at) / Fold change /veh RCAN1 (11760418_a_at) / RFU FAM167A (11723789_a_at) / Fold change /veh FAM167A (11723789_a_at) / RFU FAM26E (11764081_at) / Fold change /veh FAM26E (11764081_at) / RFU ISYNA1 (11749810_s_at) / Fold change /veh ISYNA1 (11749810_s_at) / RFU ACY1 (11761880_at) / Fold change /veh ACY1 (11761880_at) / RFU 11764098_at / Fold change /veh 11764098_at / RFU SAMD14 (11745864_x_at) / Fold change /veh SAMD14 (11745864_x_at) / RFU NPB (11741838_a_at) / Fold change /veh NPB (11741838_a_at) / RFU TMPRSS6 (11731388_a_at) / Fold change /veh TMPRSS6 (11731388_a_at) / RFU KRTAP10-2 (11738614_at) / Fold change /veh KRTAP10-2 (11738614_at) / RFU ARHGAP8 /// PRR5-ARHGAP8 (11727945_x_at) / Fold change /veh ARHGAP8 /// PRR5-ARHGAP8 (11727945_x_at) / RFU KRTAP5-7 /// NADSYN1 (11734609_at) / Fold change /veh KRTAP5-7 /// NADSYN1 (11734609_at) / RFU RASL12 (11751679_a_at) / Fold change /veh RASL12 (11751679_a_at) / RFU CDKN2B (11736163_a_at) / Fold change /veh CDKN2B (11736163_a_at) / RFU PRF1 (11729649_at) / Fold change /veh PRF1 (11729649_at) / RFU, ZNF638 /// ZNF638-IT1 / Fold change vs veh, ZNF638 /// ZNF638-IT1 / RFU, PANK3 / Fold change vs veh, PANK3 / RFU, SH3YL1 / Fold change vs veh, SH3YL1 / RFU, ZEB2 / Fold change vs veh, ZEB2 / RFU, NRIP1 / Fold change vs veh, NRIP1 / RFU, PTTG1IP / Fold change vs veh, PTTG1IP / RFU, CAPN2 / Fold change vs veh, CAPN2 / RFU, MED14 / Fold change vs veh, MED14 / RFU, SNORA58 / Fold change vs veh, SNORA58 / RFU, C1orf63 / Fold change vs veh, C1orf63 / RFU, LRRFIP1 / Fold change vs veh, LRRFIP1 / RFU, NDUFAF7 / Fold change vs veh, NDUFAF7 / RFU, SLC12A2 / Fold change vs veh, SLC12A2 / RFU, IBTK / Fold change vs veh, IBTK / RFU, ESF1 / Fold change vs veh, ESF1 / Fold change vs veh, TMEM50B / RFU, TAOK1 / Fold change vs veh, TAOK1 / RFU, ACBD3 / Fold change vs veh, ACBD3 / RFU, TMA16 / Fold change vs veh, TMA16 / RFU, RWDD3 / Fold change vs veh, RWDD3 / RFU, BCAT1 / Fold change vs veh, BCAT1 / RFU, EDEM3 / Fold change vs veh, EDEM3 / RFU, TMEM33 / Fold change vs veh, TMEM33 / RFU, WDR75 / Fold change vs veh, WDR75 / RFU, AHCTF1 / Fold change vs veh, AHCTF1 / RFU, TFRC / Fold change vs veh, TFRC / RFU, ZDHHC17 / Fold change vs veh, ZDHHC17 / RFU, NOM1 / Fold change vs veh, NOM1 / RFU, ARL8B / Fold change vs veh, ARL8B / RFU, ZBTB11 / Fold change vs veh, ZBTB11 / RFU, TAMM41 / Fold change vs veh, TAMM41 / RFU, KIAA1704 /// LOC100996395 / Fold change vs veh, KIAA1704 /// LOC100996395 / RFU, ING1 / Fold change vs veh, ING1 / RFU, TRMT61B / Fold change vs veh, TRMT61B / RFU, FUBP3 / Fold change vs veh, FUBP3 / RFU, TP53 / Fold change vs veh, TP53 / RFU, TNKS2 / Fold change vs veh, TNKS2 / RFU, ZFP14 / Fold change vs veh, ZFP14 / RFU, ACTR2 / Fold change vs veh, ACTR2 / RFU, PPP3R1 / Fold change vs veh, PPP3R1 / RFU, PIK3R1 / Fold change vs veh, PIK3R1 / RFU, HNRNPA1 / Fold change vs veh, HNRNPA1 / RFU, RNF170 / Fold change vs veh, RNF170 / RFU, ZNF28 / Fold change vs veh, ZNF28 / RFU, RNGTT / Fold change vs veh, RNGTT / RFU, OGT / Fold change vs veh, OGT / RFU, BRD1 / Fold change vs veh, BRD1 / RFU, MARS / Fold change vs veh, MARS / RFU, ZNF655 / Fold change vs veh, ZNF655 / RFU, FAHD1 / Fold change vs veh, FAHD1 / RFU, BDP1 / Fold change vs veh, BDP1 / RFU, LRRCC1 / Fold change vs veh, LRRCC1 / RFU, ARID1A / Fold change vs veh, ARID1A / RFU, ZNF146 / Fold change vs veh, ZNF146 / RFU, ZNF330 / Fold change vs veh, ZNF330 / RFU, GPN3 / Fold change vs veh, GPN3 / RFU, C9orf123 / Fold change vs veh, C9orf123 / RFU, N4BP2L2 / Fold change vs veh, N4BP2L2 / RFU, ARFIP1 / Fold change vs veh, ARFIP1 / RFU, FAM179B / Fold change vs veh, FAM179B / RFU, BCL10 / Fold change vs veh, BCL10 / RFU, UHRF1BP1L / Fold change vs veh, UHRF1BP1L / RFU, BET1 / Fold change vs veh, BET1 / RFU, CNOT2 / Fold change vs veh, CNOT2 / RFU, ZNF268 / Fold change vs veh, ZNF268 / Fold change vs veh, ZNF507 / RFU, DGCR2 / Fold change vs veh, DGCR2 / RFU, WDSUB1 / Fold change vs veh, WDSUB1 / Fold change vs veh, HSP90B1 /// MIR3652 / RFU, ADSS / Fold change vs veh, ADSS / RFU, GK / Fold change vs veh, GK / RFU, ZNF148 / Fold change vs veh, ZNF148 / RFU, TAF9 / Fold change vs veh, TAF9 / RFU, SLC1A5 / Fold change vs veh, SLC1A5 / RFU, SLMO2 / Fold change vs veh, SLMO2 / RFU, ABCC4 / Fold change vs veh, ABCC4 / RFU, LOC101060439 /// RAP1B / Fold change vs veh, LOC101060439 /// RAP1B / RFU, RFX7 / Fold change vs veh, RFX7 / RFU, GTPBP10 / Fold change vs veh, GTPBP10 / RFU, CNEP1R1 / Fold change vs veh, CNEP1R1 / RFU, BIVM-ERCC5 /// ERCC5 / Fold change vs veh, BIVM-ERCC5 /// ERCC5 / RFU, ILF3 / Fold change vs veh, ILF3 / RFU 11762660_at / Fold change /veh 11762660_at / RFU VCAN (11757783_s_at) / Fold change /veh VCAN (11757783_s_at) / RFU DDX43 (11728927_at) / Fold change /veh DDX43 (11728927_at) / RFU KRT8 (11758188_x_at) / Fold change /veh KRT8 (11758188_x_at) / RFU NKD1 (11759106_at) / Fold change /veh NKD1 (11759106_at) / RFU SRD5A1 (11742802_a_at) / Fold change /veh SRD5A1 (11742802_a_at) / RFU TPSAB1 /// TPSB2 (11721975_s_at) / Fold change /veh TPSAB1 /// TPSB2 (11721975_s_at) / RFU GSTM3 (11746129_a_at) / Fold change /veh GSTM3 (11746129_a_at) / RFU IL23R (11737362_x_at) / Fold change /veh IL23R (11737362_x_at) / RFU TMEM51 (11727254_a_at) / Fold change /veh TMEM51 (11727254_a_at) / RFU PIWIL2 (11732686_x_at) / Fold change /veh PIWIL2 (11732686_x_at) / RFU ORM1 (11744905_x_at) / Fold change /veh ORM1 (11744905_x_at) / RFU CCDC152 (11743942_at) / Fold change /veh CCDC152 (11743942_at) / RFU ECM1 (11717891_a_at) / Fold change /veh ECM1 (11717891_a_at) / RFU IL23R (11748794_a_at) / Fold change /veh IL23R (11748794_a_at) / RFU TNFAIP8L3 (11732012_x_at) / Fold change /veh TNFAIP8L3 (11732012_x_at) / RFU MBOAT4 (11741988_at) / Fold change /veh MBOAT4 (11741988_at) / RFU 11764193_at / Fold change /veh 11764193_at / RFU TMEM53 (11763286_at) / Fold change /veh TMEM53 (11763286_at) / RFU MAGEB2 (11727129_at) / Fold change /veh MAGEB2 (11727129_at) / RFU TMEM200A (11744735_a_at) / Fold change /veh TMEM200A (11744735_a_at) / RFU CCDC152 (11751479_a_at) / Fold change /veh CCDC152 (11751479_a_at) / RFU FAM211A (11726209_a_at) / Fold change /veh FAM211A (11726209_a_at) / RFU RGS16 (11746705_a_at) / Fold change /veh RGS16 (11746705_a_at) / RFU VCAN (11755009_s_at) / Fold change /veh VCAN (11755009_s_at) / RFU RHOB (11743442_s_at) / Fold change /veh RHOB (11743442_s_at) / RFU RGS16 (11720943_a_at) / Fold change /veh RGS16 (11720943_a_at) / RFU RGS16 (11720944_at) / Fold change /veh RGS16 (11720944_at) / RFU, VPS4B / Fold change vs veh, VPS4B / RFU, CREB1 / Fold change vs veh, CREB1 / RFU, DNAJC13 / Fold change vs veh, DNAJC13 / RFU, GNAQ / Fold change vs veh, GNAQ / RFU, CDK5R1 / Fold change vs veh, CDK5R1 / RFU, ZRANB3 / Fold change vs veh, ZRANB3 / RFU, CUL4A / Fold change vs veh, CUL4A / RFU, CCNY / Fold change vs veh, CCNY / RFU, UFL1 / Fold change vs veh, UFL1 / RFU, COG3 / Fold change vs veh, COG3 / RFU, DIAPH2 / Fold change vs veh, DIAPH2 / RFU, SKA2 / Fold change vs veh, SKA2 / RFU, AFF3 / Fold change vs veh, AFF3 / RFU, LMF1 / Fold change vs veh, LMF1 / RFU, IPO11 / Fold change vs veh, IPO11 / RFU, DFFB / Fold change vs veh, DFFB / RFU, FOXP1 / Fold change vs veh, FOXP1 / RFU, CARD8 / Fold change vs veh, CARD8 / RFU, STRN3 / Fold change vs veh, STRN3 / RFU, ADK / Fold change vs veh, ADK / RFU, RASSF2 / Fold change vs veh, RASSF2 / RFU, WIPF1 / Fold change vs veh, WIPF1 / RFU, LARP1B / Fold change vs veh, LARP1B / RFU, RASA1 / Fold change vs veh, RASA1 / RFU, RB1 / Fold change vs veh, RB1 / RFU, PPFIA1 / Fold change vs veh, PPFIA1 / RFU, MAT2A / Fold change vs veh, MAT2A / RFU, CCT5 / Fold change vs veh, CCT5 / RFU, WDR92 / Fold change vs veh, WDR92 / RFU, CUX1 / Fold change vs veh, CUX1 / RFU, TTC7A / Fold change vs veh, TTC7A / RFU, TMEM135 / Fold change vs veh, TMEM135 / RFU, DEPTOR / Fold change vs veh, DEPTOR / RFU, CPM / Fold change vs veh, CPM / RFU, DNAJB6 / Fold change vs veh, DNAJB6 / RFU, CACNA2D3 / Fold change vs veh, CACNA2D3 / RFU, DTX4 / Fold change vs veh, DTX4 / RFU, TFCP2 / Fold change vs veh, TFCP2 / RFU, GMCL1 /// GMCL1P1 / Fold change vs veh, GMCL1 /// GMCL1P1 / RFU, AEBP2 / Fold change vs veh, AEBP2 / RFU, SNHG1 /// SNORD22 /// SNORD25 /// SNORD26 /// SNORD27 /// SNORD28 /// SNORD29 /// SNORD31 / Fold change vs veh, SNHG1 /// SNORD22 /// SNORD25 /// SNORD26 /// SNORD27 /// SNORD28 /// SNORD29 /// SNORD31 / Fold change (Aza/veh), C12orf56 (ProbeSet 11735607_a_at) / Fold change (ACY-1035/veh), C12orf56 (ProbeSet 11735607_a_at) / Fold change (Aza/veh), FGFR1OP (ProbeSet 11751329_s_at) / Fold change (ACY-1035/veh), FGFR1OP (ProbeSet 11751329_s_at) / Fold change (Aza/veh), VPS36 (ProbeSet 11739960_a_at) / Fold change (ACY-1035/veh), VPS36 (ProbeSet 11739960_a_at) / RFU SYPL1 (11715823_x_at) / Fold change /veh SYPL1 (11715823_x_at) / RFU IGFBP7 (11715501_s_at) / Fold change /veh IGFBP7 (11715501_s_at) / RFU REEP3 (11722064_at) / Fold change /veh REEP3 (11722064_at) / RFU IGLL1 (11728026_x_at) / Fold change /veh IGLL1 (11728026_x_at): dose or concentration left out as unconfirmed. To be noted: ProbeSet 11718701_a_at; LIST B.

For the compound `Nc1ncn([C@@H]2O[C@H](CO)[C@@H](O)[C@H]2O)c(=O)n1` [azacitidine], the “Fold change vs veh, ARFIP1” value is 1.05.
